Residues, ends and D or L forms follow the SMILES beside them.

In general, IC50 refers to the midpoint of a concentration-inhibition curve.

T1 sequence (P12821 30-1306, species assumed): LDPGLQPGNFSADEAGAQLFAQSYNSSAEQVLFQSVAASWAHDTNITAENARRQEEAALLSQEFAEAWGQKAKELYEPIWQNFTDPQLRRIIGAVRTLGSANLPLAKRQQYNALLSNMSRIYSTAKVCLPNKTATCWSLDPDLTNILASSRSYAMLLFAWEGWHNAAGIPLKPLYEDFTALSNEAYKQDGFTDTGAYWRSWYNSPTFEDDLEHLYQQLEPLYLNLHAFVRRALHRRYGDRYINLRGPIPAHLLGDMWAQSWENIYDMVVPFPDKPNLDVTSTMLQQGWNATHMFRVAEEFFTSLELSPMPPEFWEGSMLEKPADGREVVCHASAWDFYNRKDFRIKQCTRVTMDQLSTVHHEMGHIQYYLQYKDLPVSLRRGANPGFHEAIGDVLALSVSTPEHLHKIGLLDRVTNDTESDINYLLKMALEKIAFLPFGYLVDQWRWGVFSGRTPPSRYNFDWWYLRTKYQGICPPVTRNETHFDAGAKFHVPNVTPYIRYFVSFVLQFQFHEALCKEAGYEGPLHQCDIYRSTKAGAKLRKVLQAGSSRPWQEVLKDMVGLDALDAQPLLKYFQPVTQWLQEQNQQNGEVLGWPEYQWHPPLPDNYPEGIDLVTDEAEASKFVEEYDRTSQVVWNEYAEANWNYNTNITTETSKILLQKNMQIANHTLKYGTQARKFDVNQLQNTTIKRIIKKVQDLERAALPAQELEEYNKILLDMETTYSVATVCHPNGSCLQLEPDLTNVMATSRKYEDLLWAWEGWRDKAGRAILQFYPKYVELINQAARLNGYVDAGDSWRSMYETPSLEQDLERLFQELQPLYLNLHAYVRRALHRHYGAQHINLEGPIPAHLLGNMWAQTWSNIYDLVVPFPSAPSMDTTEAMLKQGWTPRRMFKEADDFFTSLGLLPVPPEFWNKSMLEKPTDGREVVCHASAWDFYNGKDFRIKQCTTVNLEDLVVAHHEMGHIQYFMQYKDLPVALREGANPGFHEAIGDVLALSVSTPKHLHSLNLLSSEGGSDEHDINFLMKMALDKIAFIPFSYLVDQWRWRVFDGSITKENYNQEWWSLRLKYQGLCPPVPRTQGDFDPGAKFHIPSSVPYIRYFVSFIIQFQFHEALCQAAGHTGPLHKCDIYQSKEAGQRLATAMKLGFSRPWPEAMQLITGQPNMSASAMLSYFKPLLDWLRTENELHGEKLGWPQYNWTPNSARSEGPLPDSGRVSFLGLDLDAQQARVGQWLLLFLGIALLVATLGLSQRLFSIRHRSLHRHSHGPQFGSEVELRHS

This assay has as its target T1, angiotensin converting enzyme (ACE) (Homo sapiens, UniProt P12821).
T1 construct: purchased Dojindo Inc., Kumamoto, Japan ACE kit-WST
Put plainly: ACE inhibitory activity, colorimetric detection system (ACE kit-WST). The format is biochemical. Particulars: synthetic peptides; mean ± SD, n = 3; read-out: IC50 (μM) for ACE of corresponding synthetic peptides. The method, then: The ACE inhibitory activity was determined following the method as previously described, using the colorimetric detection system (ACE kit-WST, Dojindo Inc., Kumamoto, Japan). The assay procedure was consistent with the technical manual provided by the assay kit. Briefly, 20 µL of sample solution was added to a sample well, and 20 µL of deionized water was added to blank 1 and blank 2 wells. 20 µL of substrate buffer was added to each well. 20 µL of deionized water was added to blank 2 well, while 20 µL of enzyme working solution was added to each sample and blank 1 wells. All wells containing above solutions were incubated at 37 °C for 1 h. Afterwards, 200 µL of the indicator working solution was added to each well with further incubation for 10 min. Then, the absorbance was recorded at 450 nm using a microplate reader (Cytation 3, BioTek Instruments, Inc., Winooski, VT, USA). The ACE inhibitory activity was calculated using the equation (1) ACE inhibitory activity (inhibition rate %) = Ablank1− Asample/Ablank1− Ablank2 × 100% where Ablank1 represented positive control (without ACE inhibition); Ablank2 was the absorbance of the reagent blank, while Asample was the absorbance of the sample. The concentration inducing 50% inhibition (IC50) of peptides and some samples were also determined with non-linear regression.
As for `CC(C)[C@H](NC(=O)[C@H](C)N)C(=O)N[C@@H](CCC(N)=O)C(=O)O` [AVQ] (H-Ala-Val-Gln-OH), the concentration for half-maximal inhibition (IC50) was determined as 181 ± 6.17 µM.

As to `CC(C)C[C@H](NC(=O)[C@H](Cc1ccc(O)cc1)NC(=O)[C@H](C)N)C(=O)N[C@@H](CCC(N)=O)C(=O)O` [AYLQ] (H-AYLQ-OH), the IC50 is 229 ± 9.63 µM.

Consider `CC(C)C[C@H](NC(=O)[C@H](CCC(N)=O)NC(=O)[C@@H](N)CC(N)=O)C(=O)O` [NQL] (H-Asn-Gln-Leu-OH), for which the IC50 is 705 ± 16.1 µM.

As for `CC(C)C[C@H](NC(=O)[C@H](CO)NC(=O)[C@@H]1CCCN1C(=O)[C@H](CC(C)C)NC(=O)[C@@H](N)C(C)C)C(=O)N[C@@H](CC(N)=O)C(=O)O` [VLPSLN] (H-VLPSLN-OH), the IC50 came out at 1246 ± 9.92 µM.

With `CC(C)C[C@H](NC(=O)[C@@H](NC(=O)[C@@H]1CCCN1C(=O)[C@H](CC(C)C)NC(=O)[C@@H](N)C(C)C)C(C)C)C(=O)N[C@@H](CO)C(=O)O` [VLPVLS] (H-VLPVLS-OH), the IC50 came to 248 ± 7.15 µM.

Turning to `NC(=O)CC[C@H](NC(=O)[C@@H]1CCCN1C(=O)[C@@H](N)Cc1ccc(O)cc1)C(=O)O` [YPQ] (H-Tyr-Pro-Gln-OH), the IC50 came out at 220 ± 9.56 µM.

Source of the values: paper PMC6770510, “In Vitro Production and Identification of Angiotensin Converting Enzyme (ACE) Inhibitory Peptides Derived from Distilled Spent Grain Prolamin Isolate” (Foods, 2019).
